Assay results published in US10172835B2, “Anticancer agent composition” (J-Pharma Co., Ltd., priority 2014, dated 2019).

Columns and labels:
[1] = system: HT-29 cell derived from human large intestine cancer; test: Tumor growth in nude mouse inoculated subcutaneously with HT-29 cells; type: in vivo; details: compared with untreated control group
Description: A HT-29 cell was inoculated subcutaneously into a mouse, and the transition of the size of the tumor lump was measured with time from the day on which the tumor has grown to a certain size, when each of COM-JP and 5-FU was used alone or in combination.

[2] = system: human Peripheral Blood Lymphocytes; test: Proliferative response of human PBL; type: cell-based; details: 1.0-50.0 μM
Bcl2 family members = test: Western blot of Bcl2 family members, KO99L cells; type: cell-based, murine; details: 10.0 μM, starting at 6.0 h
Description: (§1) Cell extracts were prepared using a cell lysis buffer (50 mM HEPES, pH 7.4, 150 mM NaCl, 20 mM EDTA, 100 mM NaF, 10 mM Na3VO4, 0.5% nonyl phenoxypolyethoxylethanol (NP40) supplemented with a cocktail of protease inhibitors. After SDS-PAGE separation and transfer to nitrocellulose immunoblotting was performed using the following antibodies against: Akt (Cell Signaling Technologies, #9272), CHOP (#2895), cleaved caspase 3 (#9664), c-Myc (#9402), eIF2a (#9721), 4EBP1 (#9644), LC3A/B (#12741), PARP (#9542), pJnk (T183/Y185) (#9251), pSer235-236-S6RP (#4856), pSer473-Akt (#9271), pSer65-4EBP1 (#9451) and S6RP (#2217); Bax (Sigma-Aldrich, B8429); PUMA (Abcam, ab54288); Bak (Millipore, 06536); ATF4 (Santa Cruz Biotechnologies, sc200), GADD34 (sc8327), Hsp60 (sc-1722), Hsp90 (sc-13119) and XBP1 (sc-7160); ATF6 (Imgenex, IMG-273).

KO99L cells = test: Cell death by flow cytometry after DAPI staining, KO99L cells; type: cell-based, murine; details: 48 h
KO99-RJ cells = test: Cell death (PI staining) of KO99-RJ cells; type: cell-based, murine; details: 48 h
mTOR (phospho-S6RP) = test: Phospho-Flow staining of phospho-S6RP in primary T-ALL samples; type: cell-based, human; details: two primary T-ALL samples, 10 μM
Description: Cells (1.0±0.1×10^6 per well; 1 mL) were incubated with various effectors (24 h, 37° C.) and then permeabilized with Cytofix/Cytoperm buffer (100 μL, 30 min, 4° C.) and then washed with PermWash (BD Biosciences) and stained with phospho-Ser235/236-S6RP antibody (30 min, 4° C.). After an additional PermWash, cells were then stained with a secondary anti-rabbit-alexaF 488 (20 μg/mL; Life Technologies) for (30 min, 4° C.). Cells were then washed in PermWash and re-suspended in staining buffer (PBS+0.1% bovine serum albumin+1.0% paraformaldehyde) and analyzed by flow cytometry on a MacsQuant Analyser (Miltenyi Biotech).

CHOP = test: Western blot of CHOP protein levels, KO99L cells; type: cell-based, murine
Description: as §1

## Nc1cc(COc2c(Cl)cc(C[C@H](N)C(=O)O)cc2Cl)c2oc(-c3ccccc3)nc2c1 [COMPOUND-JP, O-(5-amino-2-phenylbenzoxazole-7-yl)methyl-3,5-dichloro-L-tyrosine]
[1]
  increase of the tumor, single administration: more significant decrease
[2]
  PBL cell proliferation: did not significantly alter
Bcl2 family members
  protein levels of four pro-apoptotic members: Bak, Bax, PUMA and Bim: increased protein levels
KO99L cells
  decrease of COMPOUND-JP induced cell death upon EAA addition: 2.5 fold
KO99-RJ cells
  cell death: far less efficient
mTOR (phospho-S6RP)
  phospho-S6RP by phospho-Flow cytometry: mTOR inhibitory effect
CHOP; 10 μM, complete medium plus EAA
  COMPOUND-JP mediated CHOP induction upon EAA supplementation: prevented CHOP induction
CHOP; FIG. 5A, COMPOUND-JP 10.0 μM, L-Asp, Erw 2.5 units/ml, 2.0-24 h
  CHOP expression, time course: rapidly induced CHOP expression
CHOP; FIG. 5B, COMPOUND-JP 5.0 and 10.0 μM, L-Asp 2.5 units/ml, rapamycin 10.0 nM, MK-2206 10.0 μM, KU0063794 10.0 μM
  CHOP induction: profound and COMPOUND-JP dose dependent induction
